The values below come from patent US20120225076A1, “FRA-1 TARGET GENES AS DRUG TARGETS FOR TREATING CANCER” (priority 2009, published 2012).

Where a name gives a salt, the structure may show the parent alone. Read-outs that look alike come from different tables or passages of the source. Numbered stars: 1 amine (or outer) side, 2 acyl side, 3 side chain; on linkers, the order of the positions; unused ones are H or OH. Bridge positions count the residues as written; N and C are the ends. Square brackets hold non-standard residues; d marks the D form. Peptide text beside a SMILES is read from it. Adda = CO[C@@H](Cc1ccccc1)[C@@H](C)/C=C(C)/C=C/[C@H](N[*:1])[C@H](C)C(=O)[*:2]; dAsp(3S-Me) = C[C@H](C(=O)[*:3])[C@@H](N[*:1])C(=O)[*:2]; d(γGlu) = O=C(O)[C@@H](CCC(=O)[*:2])N[*:1]; NMeDha = C=C(NC)C(=O)O

The target in one data set is Aurora kinase B (Homo sapiens, UniProt Q96GD4). To be noted: description of known inhibitor; cited from earlier work.
For data set [1], the system named is breast cancer cells expressing high levels of Fra-1.
The test system of the next data set is PP1. To be noted: cited from earlier work.
In a further data set the test system is PP2A. To be noted: cited from earlier work.
For the next data set, the target named is E2F1-DNA complex (Homo sapiens, UniProt Q01094). To be noted: description of known inhibitor; cited from earlier work.
The target in another data set is PP4 (Homo sapiens, UniProt P60510). To be noted: description of known inhibitor; cited from earlier work.
In a further data set the target is Adenosine A2b receptor (Homo sapiens, UniProt P29275). To be noted: description of known inhibitor; cited from earlier work.
The next data set concerns PRLs. To be noted: cited from earlier work.

Adenosine A2b receptor, sequence (P29275 whole entry): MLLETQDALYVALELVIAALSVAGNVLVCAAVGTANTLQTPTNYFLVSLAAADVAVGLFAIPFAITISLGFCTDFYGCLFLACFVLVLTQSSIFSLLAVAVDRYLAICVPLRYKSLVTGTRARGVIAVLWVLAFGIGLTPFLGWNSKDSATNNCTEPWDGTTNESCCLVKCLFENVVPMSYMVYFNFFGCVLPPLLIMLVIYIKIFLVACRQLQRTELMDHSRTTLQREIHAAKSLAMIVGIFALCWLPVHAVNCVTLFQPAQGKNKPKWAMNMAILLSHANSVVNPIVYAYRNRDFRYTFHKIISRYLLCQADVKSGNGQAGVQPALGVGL
Aurora kinase B, sequence (Q96GD4 whole entry): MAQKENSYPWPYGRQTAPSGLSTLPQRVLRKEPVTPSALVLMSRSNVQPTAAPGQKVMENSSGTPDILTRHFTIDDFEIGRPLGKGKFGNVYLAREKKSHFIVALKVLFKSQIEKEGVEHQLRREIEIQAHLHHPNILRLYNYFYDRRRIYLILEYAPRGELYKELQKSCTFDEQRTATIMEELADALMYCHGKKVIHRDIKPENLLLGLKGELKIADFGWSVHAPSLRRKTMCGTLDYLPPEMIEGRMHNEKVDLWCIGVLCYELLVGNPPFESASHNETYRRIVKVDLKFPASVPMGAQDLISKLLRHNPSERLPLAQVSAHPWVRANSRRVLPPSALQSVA
E2F1-DNA complex, sequence (Q01094 whole entry, one chain of several): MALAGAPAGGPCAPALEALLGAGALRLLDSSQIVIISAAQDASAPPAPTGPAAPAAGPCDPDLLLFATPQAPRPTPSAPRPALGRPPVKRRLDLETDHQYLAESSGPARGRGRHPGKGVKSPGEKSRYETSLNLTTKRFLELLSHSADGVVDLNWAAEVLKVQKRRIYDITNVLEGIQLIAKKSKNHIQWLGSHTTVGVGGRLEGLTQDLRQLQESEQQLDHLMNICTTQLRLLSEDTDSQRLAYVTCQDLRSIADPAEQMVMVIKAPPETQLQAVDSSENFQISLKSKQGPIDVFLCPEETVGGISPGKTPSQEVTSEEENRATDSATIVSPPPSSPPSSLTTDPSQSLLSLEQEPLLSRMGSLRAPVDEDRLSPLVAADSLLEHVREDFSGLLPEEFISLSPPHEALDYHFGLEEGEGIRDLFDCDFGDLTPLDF
PP4, sequence (P60510 whole entry): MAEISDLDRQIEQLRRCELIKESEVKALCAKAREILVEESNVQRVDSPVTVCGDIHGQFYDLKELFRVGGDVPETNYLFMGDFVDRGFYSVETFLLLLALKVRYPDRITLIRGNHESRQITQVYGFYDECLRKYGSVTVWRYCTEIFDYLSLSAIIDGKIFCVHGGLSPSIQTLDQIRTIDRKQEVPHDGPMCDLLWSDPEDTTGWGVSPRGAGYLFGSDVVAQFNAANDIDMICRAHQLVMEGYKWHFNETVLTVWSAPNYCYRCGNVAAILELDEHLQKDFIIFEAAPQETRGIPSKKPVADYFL

On to `CCN(CCCOc1ccc2c(Nc3cc(CC(=O)Nc4cccc(F)c4)n[nH]3)ncnc2c1)CCOP(=O)(O)O` [AZD1152], for which, on Aurora kinase B, the “inhibition of Aurora kinase B” value is reported as “selective inhibitor”.

On to `Nc1nc2ccc(Cl)cc2c2nc(-c3ccco3)nn12` [CGS-15953], for which the “cytotoxicity for breast cancer cells expressing high levels of Fra-1” value in data set [1] is recorded as “*In an in vitro drug screen with the LOPAC library, we identified those two ADORA2B inhibitors as being selectively cytotoxic for breast cancer cells expressing high levels of Fra-1”. As for `COC[C@@H]([C@H](O)[C@H](O)C(=O)NCC[C@H](C)c1nc(/C=C/C[C@@H]2O[C@]3(C[C@@H](O)[C@@H]2C)O[C@H]([C@H](C[C@H](O)[C@H](C)[C@H](O)[C@H](C)/C=C(C)/C(C)=C/C=C/C(C)=C\C#N)OC)[C@H](OP(=O)(O)O)C3(C)C)co1)N(C)C` [Calyculin A], in the data set on PP1, the “potency for PP1” value is “high potency for PP2A, low potency for PP1”. Further, in the data set with PP2A (description of known inhibitor), the “potency for PP2A” value is listed as “high potency for PP2A, low potency for PP1”. Take `C[C@@]12C(=O)OC(=O)[C@]1(C)[C@H]1CC[C@@H]2O1` [Candharidin]: the “potency for PP2A” value in the data set on PP2A (description of known inhibitor) was “selective inhibitor of PP2A”. Take `CC1(C(=O)O)C2CCC(O2)C1(C)C(=O)O` (centres unmarked) [Cantharidic acid]: in the data set on PP1, the “potency for PP1” value was “inhibits PP2A and PP1 (for use in protein purification)”. Besides, the “potency for PP2A” value with PP2A was “inhibits PP2A and PP1 (for use in protein purification)”. As for `Cn1cc(NC(=O)c2cc(NC(=O)c3cc(NC=O)cn3C)cn2C)cc1C(=O)NCCC(=N)N` [Distamycin], on E2F1-DNA complex, the “inhibition of E2F1-DNA complex” value is given as “specifically inhibits E2F1-DNA complex”. Consider `O=C(O)[C@@H]1[C@H](C(=O)O)[C@H]2CC[C@@H]1O2` [Endothall], for which the “potency for PP2A” value in the data set on PP2A (description of known inhibitor) is “intermediate potency for PP2A”. As for `C[C@@](O)(/C=C/[C@H]1CC=CC(=O)O1)[C@@H](C[C@@H](O)\C=C/C=C\C=C\CO)OP(=O)(O)O` [Fostriecin sodium salt], the “potency for PP2A” value in the data set on PP2A (description of known inhibitor) was “potent inhibitors for PP2A and PP4”. The “potency for PP4” value at PP4 was “potent inhibitors for PP2A and PP4”. Consider `C=C1C(=O)N[C@H](C)C(=O)N[C@@H](CC(C)C)C(=O)N[C@@H](C(=O)O)[C@H](C)C(=O)N[C@@H](CCCNC(=N)N)C(=O)N[C@@H](/C=C/C(C)=C/[C@H](C)[C@H](Cc2ccccc2)OC)[C@H](C)C(=O)N[C@@H](C(=O)O)CCC(=O)N1C` [Microcystin LR] (R[Adda][d(γGlu)][NMeDha][dA]L[dAsp(3S-Me)]-OH; lactam N-7), for which, in the data set on PP2A, the “potency for PP2A compared to PP1” value is on record as “more potent for PP2A when compared to PP1”. `C=C1[C@@H](O)[C@@H]2O[C@]3(CC[C@H](/C=C/[C@@H](C)[C@@H]4CC(C)=C[C@@]5(O[C@H](C[C@@](C)(O)C(=O)O)CC[C@H]5O)O4)O3)CC[C@H]2O[C@@H]1[C@@H](O)C[C@H](C)[C@H]1O[C@@]2(CCCCO2)CC[C@H]1C` [Okadaic acid]: in the data set on PP1, the “potency for PP1” value is “completely inhibits PP2A at 1 nM (less potent for PP1)”. In addition, the “inhibition of PP2A” value in the data set on PP2A (at 1 nM) is reported as “completely inhibits PP2A at 1 nM (less potent for PP1)”. Turning to `CCCn1c(=O)[nH]c2nc(-c3ccc(S(=O)(=O)N4CCN(Cc5ccccc5)CC4)cc3)[nH]c2c1=O` [PSB601], the “antagonism of adenosine A2b receptor” value at Adenosine A2b receptor is recorded as “specific antagonist”. With `N=C(N)c1ccc(OCCCCCOc2ccc(C(=N)N)cc2)cc1` [Pentamidine], in the data set on PRLs, the “inhibition of PRLs” value is “inhibits all PRLs”. On to Toutomycin, for which the “potency for PP2A compared to PP1” value in the data set on PP2A (PP2A versus PP1) is recorded as “more potent for PP1, less for PP2A”.
